Source: US20180244660A1, “CYCLOPROPYLDERIVATIVES AND THEIR USE AS KINASE INHIBITORS” (Karyopharm Therapeutics Inc., priority 2015, published 2018)

Legend:
MS751 cells = assay: MTT cell proliferation assay, MS751 cells; type: cell-based, human; settings: Homo sapiens, incubation approximately 64-72 hours, read-out: MTT Assay IC50 MS 751
Procedure: (§1) The MTT cell proliferation assay was used to study the cytotoxic properties of the compounds. The assay was performed according to the method described by Roche Molecular Biochemicals, with minor modifications. The assay is based on the cleavage of the tetrazolium salt, MTT, in the presence of an electron-coupling reagent. The water-insoluble formazan salt produced must be solubilized in an additional step. Cells grown in a 96-well tissue culture plate were incubated with the MTT solution for approximately 4 hours. After this incubation period, a water-insoluble formazan dye formed. After solubilization, the formazan dye was quantitated using a scanning multi-well spectrophotometer (ELISA reader). […] The cells were seeded at 5,000-10,000 cells in each well of 96-well plate in 100 μL of fresh culture medium and were allowed to attach overnight. The stock solutions of the compounds were diluted in 100 μL cell culture medium to obtain eight concentrations of each test compound, ranging from 1 nM to 30 μM. […] All optical densities were measured at 490 nm using a Vmax Kinetic Microplate Reader (Molecular Devices). In most cases, the assay was performed in duplicate and the results were presented as a mean percent inhibition to the negative control+SE. The following formula was used to calculate the percent of inhibition: Inhibition (%)=(1−(ODo/OD))×100.
(§2) The compounds were tested against MS751, Z138 and 3T3 cells. The MS751 cell line is derived from a metastasis to lymph node of human cervix from a patient diagnosed with squameous cell carcinoma of the cervix. The Z138 cell line is a mature B-cell acute lymphoblastic leukemia cell line derived from a patient with chronic lumphocytic leukemia. 3T3 cells are standard fibroblast cells; they were originally isolated from Swiss mouse embryo tissue.

3T3 cells = assay: MTT cell proliferation assay, 3T3 cells; type: cell-based, mouse; settings: Mus musculus, NIH3T3; 3T3 fibroblast cells; incubation approximately 64-72 hours
Procedure: as §1, §2

Z138 cells = assay: MTT cell proliferation assay, Z138 cells; type: cell-based, human; settings: Homo sapiens, Z-138, incubation approximately 64-72 hours
Procedure: as §1, §2

SMILES	IC50 (MS751 cells) [µM]	IC50 (3T3 cells) [µM]	IC50 (Z138 cells) [µM]
Nc1ccc([C@H]2C[C@@H]2C(=O)NCCc2cc3cc(-c4ccc(C(=O)N5CCC(F)(F)CC5)cc4)cc(-c4ccc(F)cc4)c3o2)cn1 [Compound K019, (1S,2S)-2-(6-aminopyridin-3-yl)-N—(2-(5-(4-(4,4-difluoropiperidine-1-carbonyl)phenyl)-7-(4-fluorophenyl)benzofuran-2-yl)ethyl)cyclopropanecarboxamide]	< 1	1 to 5	< 1
Nc1ccc([C@H]2C[C@@H]2C(=O)NCc2cc3cc(-c4ccc(C(=O)N5CC(Cl)C5)cc4)cc(-c4ccc(F)cc4)c3o2)cn1 [Compound K016, (1S,2S)-2-(6-aminopyridin-3-yl)-N—((5-(4-(3-chloroazetidine-1-carbonyl)phenyl)-7-(4-fluorophenyl)benzofuran-2-yl)methyl)cyclopropanecarboxamide]	< 1	1 to 5	< 1
Nc1ccc([C@@H]2C[C@H]2C(=O)NCc2cc3cc(-c4ccc(C(=O)N5CCC(F)(F)CC5)cc4)cc(C(F)(F)F)c3o2)cn1 [Compound K008, (1R,2R)-2-(6-Aminopyridin-3-yl)-N—((5-(4-(4,4-difluoropiperidine-1-carbonyl)phenyl)-7-(trifluoromethyl)benzofuran-2-yl)methyl)cyclopropanecarboxamide]	> 10	> 10	1 to 5
Nc1ccc([C@H]2C[C@@H]2C(=O)NCc2cc3cc(-c4ccc(C(=O)N5CC(F)(F)C5)cc4)cc(-c4ccc(F)cc4)c3o2)cn1 [Compound K018, (1S,2S)-2-(6-aminopyridin-3-yl)-N—((5-(4-(3,3-difluoroazetidine-1-carbonyl)phenyl)-7-(4-fluorophenyl)benzofuran-2-yl)methyl)cyclopropanecarboxamide]	< 1	1 to 5	< 1
Nc1ccc([C@H]2C[C@@H]2C(=O)NCc2cc3cc(-c4ccc(C(=S)N5CCC(F)(F)CC5)cc4)cc(-c4ccc(F)cc4)c3o2)cn1 [Compound K013, (1S,2S)-2-(6-aminopyridin-3-yl)-N—((5-(4-(4,4-difluoropiperidine-1-carbonothioyl)phenyl)-7-(4-fluorophenyl)benzofuran-2-yl)methyl)cyclopropanecarboxamide]	< 1	1 to 5	< 1
Nc1ccc([C@H]2C[C@@H]2C(=O)NCc2cc3cc(-c4ccc(C(=O)N5CCC(F)(F)CC5)cc4)cc(-c4ccc(F)cc4F)c3o2)cn1 [Compound K010, (1S,2S)-2-(6-aminopyridin-3-yl)-N—((7-(2,4-difluorophenyl)-5-(4-(4,4-difluoropiperidine-1-carbonyl)phenyl)benzofuran-2-yl)methyl)cyclopropanecarboxamide]	< 1	1 to 5	< 1
Nc1ccc([C@H]2C[C@@H]2C(=O)NCCCOc2cc(-c3ccc(C(=O)N4CCC(F)(F)CC4)cc3)cc(C(F)(F)F)c2)cn1 [Compound K005, (1S,2S)-2-(6-aminopyridin-3-yl)-N—(3-(4′-(4,4-difluoropiperidine-1-carbonyl)-5-(trifluoromethyl)biphenyl-3-yloxy)propyl)cyclopropanecarboxamide]	< 1	< 1	< 1
Nc1ccc([C@H]2C[C@@H]2C(=O)NCc2cc3cc(-c4ccc(C(=O)N5CCC(F)(F)CC5)cc4)cc(-c4ccc(F)cc4)c3s2)cn1 [Compound K015, (1S,2S)-2-(6-aminopyridin-3-yl)-N—((5-(4-(4,4-difluoropiperidine-1-carbonyl)phenyl)-7-(4-fluorophenyl)benzo[b]thiophen-2-yl)methyl)cyclopropanecarboxamide]	1 to 5	> 10	1 to 5
Nc1ccc([C@H]2C[C@@H]2C(=O)NCc2nc3cc(-c4ccc(C(=O)N5CCC(F)(F)CC5)cc4)cc(-c4ccc(F)cc4)c3o2)cn1 [Compound K021, (1S,2S)-2-(6-aminopyridin-3-yl)-N—((5-(4-(4,4-difluoropiperidine-1-carbonyl)phenyl)-7-(4-fluorophenyl)benzo[d]oxazol-2-yl)methyl)cyclopropanecarboxamide]	> 10	> 10	> 10
